Data taken from ChEMBL document CHEMBL5154936, “Scaffold Hopping Strategy to Identify Prostanoid EP4 Receptor Antagonists for Cancer Immunotherapy” (J Med Chem, 2022).
Converted amounts (≈) assume the structure as drawn.

Key:
[1] = Volume of distribution at steady state in BALB/c mouse at 5 mg/kg, po measured upto 24 hrs by LC-MS/MS analysis; type: ADME, organism-based; conditions: in vivo
[2] = Volume of distribution at steady state in BALB/c mouse at 1 mg/kg, iv measured upto 24 hrs by LC-MS/MS analysis; type: ADME, organism-based; conditions: in vivo, read-out: Vdss
[3] = target: T1, Prostaglandin E2 receptor EP1 subtype (Homo sapiens, UniProt P34995); assay: Antagonist activity at human EP1 receptor transfected in CHO/Galpha16 cells preincubated for 15 mins followed by PGE2 addition by calcium flux assay; type: functional, cell-based
T1 sequence (P34995 whole entry): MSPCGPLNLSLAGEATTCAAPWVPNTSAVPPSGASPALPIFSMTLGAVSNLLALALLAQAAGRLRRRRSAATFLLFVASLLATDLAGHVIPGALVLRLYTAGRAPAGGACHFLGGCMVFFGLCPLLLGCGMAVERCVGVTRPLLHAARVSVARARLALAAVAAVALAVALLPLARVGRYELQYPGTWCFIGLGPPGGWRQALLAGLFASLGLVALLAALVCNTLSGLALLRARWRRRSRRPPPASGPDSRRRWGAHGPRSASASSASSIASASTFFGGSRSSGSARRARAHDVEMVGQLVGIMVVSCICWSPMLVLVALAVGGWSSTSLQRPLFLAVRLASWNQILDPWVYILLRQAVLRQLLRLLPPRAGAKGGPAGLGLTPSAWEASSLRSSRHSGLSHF

[4] = target: T2, Prostaglandin E2 receptor EP3 subtype (Homo sapiens, UniProt P43115); assay: Antagonist activity at human EP3 receptor transfected in CHO/Galpha16 cells preincubated for 15 mins followed by PGE2 addition by calcium flux assay; type: functional, cell-based
T2 sequence (P43115 whole entry): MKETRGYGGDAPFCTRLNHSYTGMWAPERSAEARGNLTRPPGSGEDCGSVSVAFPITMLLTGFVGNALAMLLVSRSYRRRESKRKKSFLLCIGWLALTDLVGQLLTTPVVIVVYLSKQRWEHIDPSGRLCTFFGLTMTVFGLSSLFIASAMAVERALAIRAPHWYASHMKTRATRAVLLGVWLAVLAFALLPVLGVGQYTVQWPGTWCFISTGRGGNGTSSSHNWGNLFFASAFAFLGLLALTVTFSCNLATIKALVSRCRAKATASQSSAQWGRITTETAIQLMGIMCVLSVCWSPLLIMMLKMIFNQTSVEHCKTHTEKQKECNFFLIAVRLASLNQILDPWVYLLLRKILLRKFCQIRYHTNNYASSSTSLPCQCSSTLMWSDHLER

[5] = Metabolic stability in human liver microsomes assessed as parent compound remaining at 10 uM measured after 60 mins; type: ADME, Microsome; conditions: read-out: Stability
[6] = Metabolic stability in mouse liver microsomes assessed as intrinsic clearance; type: ADME, Microsome; conditions: read-out: CLH
[7] = Metabolic stability in mouse liver microsomes assessed as parent compound remaining at 10 uM measured after 60 mins; type: ADME, Microsome; conditions: read-out: Stability
CYP1A2 = target: T3, CYP1A2 (Homo sapiens, UniProt P05177); assay: Inhibition of CYP1A2 (unknown origin) at 20 uM; type: ADME
T3 sequence (P05177 whole entry): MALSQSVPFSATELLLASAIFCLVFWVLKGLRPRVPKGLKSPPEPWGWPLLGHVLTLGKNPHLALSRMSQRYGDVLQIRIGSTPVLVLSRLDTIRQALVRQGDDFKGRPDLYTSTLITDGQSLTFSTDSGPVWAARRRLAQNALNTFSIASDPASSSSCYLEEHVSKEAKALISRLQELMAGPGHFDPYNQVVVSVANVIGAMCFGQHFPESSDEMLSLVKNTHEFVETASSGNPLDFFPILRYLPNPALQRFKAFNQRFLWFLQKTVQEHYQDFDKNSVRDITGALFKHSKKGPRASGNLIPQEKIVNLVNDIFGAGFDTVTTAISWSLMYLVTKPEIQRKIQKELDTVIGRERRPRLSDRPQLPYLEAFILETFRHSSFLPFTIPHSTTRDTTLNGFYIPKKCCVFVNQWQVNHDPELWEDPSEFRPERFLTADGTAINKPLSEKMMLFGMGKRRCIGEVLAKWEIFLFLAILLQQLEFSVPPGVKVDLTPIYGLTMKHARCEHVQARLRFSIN

CYP2B6 = target: T4, CYP2B6 (Homo sapiens, UniProt P20813); assay: Inhibition of CYP2B6 (unknown origin) at 20 uM; type: ADME
T4 sequence (P20813 whole entry): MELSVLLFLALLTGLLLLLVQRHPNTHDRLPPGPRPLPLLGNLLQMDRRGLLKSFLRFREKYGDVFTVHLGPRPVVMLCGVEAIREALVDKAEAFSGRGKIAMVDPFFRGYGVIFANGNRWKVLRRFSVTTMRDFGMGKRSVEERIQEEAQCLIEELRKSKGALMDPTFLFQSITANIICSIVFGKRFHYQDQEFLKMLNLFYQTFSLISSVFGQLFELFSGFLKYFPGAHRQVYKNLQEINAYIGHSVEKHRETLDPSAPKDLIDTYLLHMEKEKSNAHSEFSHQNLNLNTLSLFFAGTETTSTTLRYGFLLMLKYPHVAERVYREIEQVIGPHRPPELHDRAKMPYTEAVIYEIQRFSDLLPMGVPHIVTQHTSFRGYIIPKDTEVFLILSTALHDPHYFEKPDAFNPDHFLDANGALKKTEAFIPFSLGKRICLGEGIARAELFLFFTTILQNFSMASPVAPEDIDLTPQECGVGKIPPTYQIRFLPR

CYP2E1 = CYP2E1 (Homo sapiens, UniProt P05181); assay: Inhibition of CYP2E1 (unknown origin) at 20 uM; type: ADME
[8] = Cmax in BALB/c mouse at 1 mg/kg, iv measured upto 24 hrs by LC-MS/MS analysis; type: ADME, organism-based; design: time < 24 hrs, dose 1 mg/kg, route iv; conditions: in vivo
[9] = AUC (0 to infinity) in BALB/c mouse at 1 mg/kg, iv measured upto 24 hrs by LC-MS/MS analysis; type: ADME, organism-based; design: time < 24 hrs, dose 1 mg/kg, route iv; conditions: in vivo
[10] = Cmax in BALB/c mouse at 5 mg/kg, po measured upto 24 hrs by LC-MS/MS analysis; type: ADME, organism-based; design: dose 5 mg/kg, time < 24 hrs, route po; conditions: in vivo
[11] = AUC (0 to 24 hrs) in BALB/c mouse at 5 mg/kg, po measured upto 24 hrs by LC-MS/MS analysis; type: ADME, organism-based; design: dose 5 mg/kg, time < 24 hrs, route po; conditions: in vivo
[12] = AUC (0 to infinity) in BALB/c mouse at 5 mg/kg, po measured upto 24 hrs by LC-MS/MS analysis; type: ADME, organism-based; design: dose 5 mg/kg, time < 24 hrs, route po; conditions: in vivo
[13] = Clearance in BALB/c mouse at 5 mg/kg, po measured upto 24 hrs by LC-MS/MS analysis; type: ADME, organism-based; conditions: in vivo
[14] = Oral bioavailability in BALB/c mouse at 5 mg/kg measured upto 24 hrs by LC-MS/MS analysis; type: ADME, organism-based; conditions: in vivo
[15] = Kinetic solubility of compound in simulated intestinal fluid at pH 6.8 measured after 24 hrs by HPLC analysis; type: physicochemical; conditions: read-out: Kinetic_solubility
[16] = target: Voltage-gated inwardly rectifying potassium channel KCNH2 (Homo sapiens, UniProt Q12809); assay: Inhibition of human ERG potassium channel transfected in HEK293 cells by whole-cell patch clamp assay; type: toxicity, cell-based
[17] = Plasma protien binding of the compound incubated for 24 hrs by equilibrium dialysis method; type: ADME, cell-free; conditions: read-out: PPB (converted)

Chain of CYP2E1 (P05181 whole entry): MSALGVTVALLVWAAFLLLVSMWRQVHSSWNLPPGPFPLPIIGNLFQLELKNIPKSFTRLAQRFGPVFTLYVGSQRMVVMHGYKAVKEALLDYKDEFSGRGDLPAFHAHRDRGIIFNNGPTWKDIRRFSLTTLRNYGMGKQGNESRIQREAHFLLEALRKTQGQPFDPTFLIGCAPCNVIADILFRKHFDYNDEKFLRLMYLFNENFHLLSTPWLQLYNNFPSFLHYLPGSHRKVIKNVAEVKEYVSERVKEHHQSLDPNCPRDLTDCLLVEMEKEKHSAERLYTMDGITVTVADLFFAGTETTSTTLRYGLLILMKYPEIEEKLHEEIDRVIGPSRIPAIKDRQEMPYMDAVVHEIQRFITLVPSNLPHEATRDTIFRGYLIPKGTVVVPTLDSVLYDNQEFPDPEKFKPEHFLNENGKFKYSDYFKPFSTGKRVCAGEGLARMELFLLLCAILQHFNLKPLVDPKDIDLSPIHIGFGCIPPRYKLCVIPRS
Chain of Voltage-gated inwardly rectifying potassium channel KCNH2 (Q12809 whole entry): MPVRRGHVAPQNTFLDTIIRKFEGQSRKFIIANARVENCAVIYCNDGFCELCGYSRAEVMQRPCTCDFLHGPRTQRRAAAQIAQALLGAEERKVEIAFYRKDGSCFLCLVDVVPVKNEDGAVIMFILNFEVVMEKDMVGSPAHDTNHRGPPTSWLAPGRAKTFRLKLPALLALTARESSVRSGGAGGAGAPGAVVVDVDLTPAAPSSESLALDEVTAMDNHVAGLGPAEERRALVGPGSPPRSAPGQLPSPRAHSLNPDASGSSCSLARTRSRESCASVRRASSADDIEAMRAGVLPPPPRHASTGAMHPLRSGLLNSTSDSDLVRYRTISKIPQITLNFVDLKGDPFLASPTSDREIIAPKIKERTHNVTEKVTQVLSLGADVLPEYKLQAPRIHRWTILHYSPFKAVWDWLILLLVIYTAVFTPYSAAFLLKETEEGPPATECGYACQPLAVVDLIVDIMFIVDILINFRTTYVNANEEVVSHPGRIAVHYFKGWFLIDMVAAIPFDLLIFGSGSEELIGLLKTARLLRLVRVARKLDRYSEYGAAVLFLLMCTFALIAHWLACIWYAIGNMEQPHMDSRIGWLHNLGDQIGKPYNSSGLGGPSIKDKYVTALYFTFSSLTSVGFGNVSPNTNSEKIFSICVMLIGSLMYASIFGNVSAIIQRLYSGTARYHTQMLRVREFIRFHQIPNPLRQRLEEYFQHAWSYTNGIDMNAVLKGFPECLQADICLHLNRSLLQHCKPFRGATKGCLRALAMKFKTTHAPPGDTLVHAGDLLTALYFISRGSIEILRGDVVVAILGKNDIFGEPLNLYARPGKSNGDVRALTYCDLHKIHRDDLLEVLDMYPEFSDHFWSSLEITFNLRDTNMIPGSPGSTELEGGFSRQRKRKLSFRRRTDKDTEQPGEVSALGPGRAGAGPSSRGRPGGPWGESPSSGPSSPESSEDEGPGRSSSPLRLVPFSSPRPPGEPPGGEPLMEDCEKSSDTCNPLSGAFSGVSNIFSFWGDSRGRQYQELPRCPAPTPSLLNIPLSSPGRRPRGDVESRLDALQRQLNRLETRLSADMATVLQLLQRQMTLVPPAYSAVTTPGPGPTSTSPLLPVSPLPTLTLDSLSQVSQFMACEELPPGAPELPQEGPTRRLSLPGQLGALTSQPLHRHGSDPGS

SMILES | Vdss [1] [L/kg] | Vd [2] [L/kg] | IC50 [3] [µM] | IC50 [4] [µM] | remaining at 1 h, 10 µM [5] [%] | microsomal CLint [6] [µL/min/mg] | remaining at 1 h, 10 µM [7] [%] | inhibition at 20 µM (CYP1A2) [%] | inhibition at 20 µM (CYP2B6) [%] | inhibition at 20 µM (CYP2E1) [%] | Cmax [8] [ng/mL] | AUC(0-inf) [9] [ng·h/mL] | Cmax [10] [ng/mL] | AUC(0-t) at 24 h [11] [ng·h/mL] | AUC(0-inf) [12] [ng·h/mL] | CL/F [13] [mL/min/kg] | bioavailability [14] [%] | solubility kinetic at 24 h [15] [µM] | IC50 [16] [µM] | fraction unbound at 24 h [17]
O=C(O)c1ccc(CNC(=O)c2c(Cc3ccc(F)cc3)sc3c2CCOC3)cc1 | 21.0327 | 6.14 | > 10 | > 10 | 89.8 | < 9.6 | 92.1 | 46 | 78 | 31 | 2840 | 735 | 982 | 2100 | 2220 | 38.5 | 61.4 | > 200 | > 30 | 0.062
C[C@H](NC(=O)c1c(Cc2cccc(C(F)(F)F)c2)sc2c1CCOC2)c1ccc(C(=O)O)cc1 | 14.5274 | 7.39 | > 10 | > 10 | 84.6 | < 9.6 | 90.2 | 60 | 75 | 23 | 2800 | 683 | 664 | 1680 | 1690 | 49.9 | 52.3 | 182 (≈ 89.1 µg/mL) | > 30 | 0.034
